# In patent US11815509B2, “Cell line and uses thereof” (priority 2017, dated 2023):
# What was measured:
# [1] = tested on: MUTZ-3 cells; settings: 24 h stimulation, compared between the two chemicals, FIG. 6
# [2] = tested on: SenzaCell cells; settings: 24 h stimulation, compared between the two chemicals, FIG. 6
structure (smiles),measurement,setting,value
C=CC(=O)OCCO [2-hydroxyethylacrylate],SVM prediction value (prediction pattern),[1],higher prediction value than DNCB
same,SVM prediction value (prediction pattern),[2],higher prediction value than DNCB
